Experimental data taken from patent US10682371B2, “Small molecule conjugates specifically activated in tumor microenvironment for targeting and use thereof” (priority 2014, dated 2020).
Like-named read-outs stand apart in the source and are kept apart here.

What was measured:
[1] = tested on: Human breast cancer MDA-MB435 tumor tissue homogenate; type: biochemical; settings: for Activation ratio (%) in homogenates from different tumor tissues: Human breast cancer MDA-MB435
Method: (§1) At 37 °C, sample compounds were added into 100 μg acidized tumor tissue homogenates (pH6.0) in a concentration of 1 mg/ml.
(§2) At 37 °C, sample compounds were added into 100 μg acidized human breast cancer (MDA-MB435) tumor tissue homogenates (pH6.0) in a concentration of 1 mg/ml.
(§3) […], sample compounds were added into 100 μg acidized tumor tissue homogenates (pH6.0) in a concentration of 1 mg/ml.
as §2
(§4) At 37 °C, sample compounds were added into 100 μg acidized tumor tissue homogenates in a concentration of 1 mg/ml.
(§5) In the experiments, at 37 °C, compounds were added into proteases in 100 μg acidized tumor tissue homogenates in a concentration of 1 mg/ml. […] Meanwhile certain compounds produced in the screening were compared and their activation efficiency in same tissue was analyzed.
(§6) At 37° C., compounds were added into proteases in 100 μg acidized tumor tissue homogenates in a concentration of 1 mg/ml.

tumor CD8+ T cells = type: in vivo, C57 mice; settings: for CD8: CD45 (%): CD8 positive cells in CD45 positive cells of tumor
Outline: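 Tumour tissue homogenised and single cells filtered, washed, then stained 1 h at ambient temperature with CD45-PE and CD8-FITC antibodies. After washes in PBS with 1% FBS, flow cytometry gave the fraction of CD8⁺ cells among CD45⁺ leucocytes.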

[2] = tested on: Human liver cancer Hepg2 tumor tissue homogenate; type: biochemical; settings: for Activation ratio (%) in homogenates from different tumor tissues: Human liver cancer Hepg2
Method: as §1, §3, §4, §5, §6

[3] = tested on: Human non-small cell lung cancer A549 tumor tissue homogenate; type: biochemical; settings: for Activation ratio (%) in homogenates from different tumor tissues: Human non-small cell lung cancer A549
Method: as §1, §3, §4, §5, §6

[4] = tested on: Human prostate cancer PC-3 tumor tissue homogenate; type: biochemical; settings: for Activation ratio (%) in homogenates from different tumor tissues: Human prostate cancer PC-3
Method: as §1, §3, §4, §5, §6

[5] = tested on: Human colon cancer HT-29 tumor tissue homogenate; type: biochemical; settings: for Activation ratio (%) in homogenates from different tumor tissues: Human colon cancer HT-29
Method: as §1, §3, §4, §5, §6

[6] = tested on: Human pancreatic cancer Panc-1 tumor tissue homogenate; type: biochemical; settings: for Activation ratio (%) in homogenates from different tumor tissues: Human pancreatic cancer Panc-1
Method: as §1, §3, §4, §5, §6

[7] = tested on: Human renal cancer OS-RC-2 tumor tissue homogenate; type: biochemical; settings: for Activation ratio (%) in homogenates from different tumor tissues: Human renal cancer OS-RC-2
Method: as §1, §3, §4, §5, §6

[8] = tested on: Human chronic leukemia K562 tumor tissue homogenate; type: biochemical; settings: for Activation ratio (%) in homogenates from different tumor tissues: Human chronic leukemia K562
Method: as §1, §3, §4, §5, §6

[9] = tested on: Human ovarian cancer SK-OV-3 tumor tissue homogenate; type: biochemical; settings: for Activation ratio (%) in homogenates from different tumor tissues: Human ovarian cancer SK-OV-3
Method: as §1, §3, §4, §5, §6

D121 lung tumor cells = type: in vivo, C57 mice; settings: for Treatment effects on C57 mice, in words: compared to the control group and the other treatment groups
Outline: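 Endpoint is tumor inhibition rate from tumor size (mm^3) after weekly drug treatment for 4 weeks, begun once s.c. tumors from 10^6 live D121 cells reached 0.3-0.4 cm. Before challenge, C57 mice received three i.p. doses of 5×10^5 irradiated D121 cells, two weeks apart, or saline.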

[10] = D121 immunized C57 mice, 13.2 μmol/kg weekly, PDL1 antibody 5 μg/kg where combined, Day 18
[11] = 1 mg/ml, acidized homogenate pH6.0, Paclitaxel release by HPLC
[12] = Table 27, flow cytometry, immunized C57 mice, D121
[13] = Table 27, immunized C57 mice, D121 lung tumor, drugs weekly for 4 weeks, Day 18
[14] = 100 μg acidized homogenate pH6.0, 1 mg/ml, 37°
[15] = D121 immunized C57 mice, drugs weekly for 4 weeks, Day 18 (Example 23)

Compound | Treatment effects on C57 mice, in words (D121 lung tumor cells) | Activation ratio (%) in homogenates from different tumor tissues [1, 11] | CD8: CD45 (%) (tumor CD8+ T cells; [12]) | Activation ratio (%) in homogenates from different tumor tissues [2, 11] | Activation ratio (%) in homogenates from different tumor tissues [3, 11] | Activation ratio (%) in homogenates from different tumor tissues [4, 11] | Activation ratio (%) in homogenates from different tumor tissues [5, 11] | Activation ratio (%) in homogenates from different tumor tissues [6, 11] | Activation ratio (%) in homogenates from different tumor tissues [7, 11] | Activation ratio (%) in homogenates from different tumor tissues [8, 11] | Activation ratio (%) in homogenates from different tumor tissues [9, 11] | Size of tumor (mm^3) Day 18 (D121 lung tumor cells; [13]) | inhibitory rate on tumor % Day 18 (D121 lung tumor cells; [13]) | further results
4-N—(N—(N—(N-(6-maleimido caproyl)-L-alanyl)-L-alanyl)-L-asparaginyl)-amino benzyl alcohol-MMAE-carbamate [Compound S6] | improved treatment effect as compared to the daunorubicin group | – | – | – | – | – | – | – | – | – | – | – | – | Activation Efficiencies (%) ([1]; Human breast cancer MDA-MB435 tumor tissue homogenate (30 μg/ml), 1 mg/ml compound): 25.6%; CD8: D45 (%) (tumor CD8+ T cells; D121 immunized C57 mice, 13.2 μmol/kg, ratio of CD8 positive cells in CD45 positive cells of tumor): 13.0%; Activation Efficiencies (%) ([2]; Human liver cancer Hepg2 tumor tissue homogenate (30 μg/ml), 1 mg/ml compound): 26.7%; Activation Efficiencies (%) ([3]; Human non-small cell lung cancer A549 tumor tissue homogenate (30 μg/ml), 1 mg/ml compound): 27.4%; Activation Efficiencies (%) ([4]; Human prostate cancer PC-3 tumor tissue homogenate (30 μg/ml), 1 mg/ml compound): 13.2%; Activation Efficiencies (%) ([5]; Human colon cancer HT-29 tumor tissue homogenate (30 μg/ml), 1 mg/ml compound): 22.4%; Activation Efficiencies (%) ([6]; Human pancreatic cancer Panc-1 tumor tissue homogenate (30 μg/ml), 1 mg/ml compound): 17.3%; Activation Efficiencies (%) ([7]; Human renal cancer OS-RC-2 tumor tissue homogenate (30 μg/ml), 1 mg/ml compound): 20.4%; Activation Efficiencies (%) ([8]; Human chronic leukemia K562 tumor tissue homogenate (30 μg/ml), 1 mg/ml compound): 28.4%; Activation Efficiencies (%) ([9]; Human ovarian cancer SK-OV-3 tumor tissue homogenate (30 μg/ml), 1 mg/ml compound): 23.5%; Inhibitory rate on tumor Day 18 (D121 lung tumor cells; [10]): 29.47; Size of tumor (mm^3) Day 18 (D121 lung tumor cells; [10]): 957.46 ± 257.87 mm^3
COCCOCCOCCOCCOCCOCCOCCOCCOCCOCCOCCOCC(=O)NCCCC[C@H](NC(=O)COCCOCCOCCOCCOCCOCCOCCOCCOCCOCCOCCOC)C(=O)N[C@H](C)C(=O)N[C@H](C)C(=O)N[C@H](CC(N)=O)C(=O)Nc1ccc(COC(=O)OC(C(=O)OC2C[C@@]3(O)[C@@H](OC(=O)c4ccccc4)[C@H]4[C@](C)(C(=O)[C@H](OC(C)=O)C(=C2C)C3(C)C)[C@@H](O)CC2OC[C@]24OC(C)=O)[C@@H](NC(=O)c2ccccc2)c2ccccc2)cc1 (stereo partly shown) [Compound A3] | greatly improved | 93.4% | 17.3% | 86.5% | 84.4% | 99.3% | 94.6% | 94.5% | 89.4% | 73.2% | 82.8% | 360.393 ± 312.7 mm^3 | 78.65% | activation efficiency (%) ([1]; Table 24, acidized human breast cancer (MDA-MB435) tumor tissue homogenates pH6.0, 1 mg/ml, Paclitaxel release by HPLC): 94.5%
COCCOCC(=O)N[C@H](C)C(=O)N[C@H](C)C(=O)N[C@H](CC(N)=O)C(=O)Nc1ccc(COC(=O)OC(C(=O)OC2C[C@@]3(O)C(OC(=O)c4ccccc4)[C@@H]4C5(OC(C)=O)COC5C[C@H](O)[C@@]4(C)C(=O)[C@H](OC(C)=O)C(=C2C)C3(C)C)[C@@H](NC(=O)c2ccccc2)c2ccccc2)cc1 (stereo in doubt) [S1′, 2-(2-methoxyethoxy) acetylamino-L-Ala-L-Ala-L-Asn-p-amino-benzyl-paclitaxel] | greatly improved | – | – | – | – | – | – | – | – | – | – | – | – | Activation ratio (%) in homogenates from different tumor tissues [1, 14]: 92.3%; activation efficiency (%) ([1]; human breast cancer (MDA-MB435) tumor tissue homogenates pH6.0, 100 μg, 1 mg/ml, control compounds vs S1′-S4′): 94.3%; CD8: CD45 (%) (tumor CD8+ T cells; D121 immunized C57 mice (Example 23)): 19.6%; Activation ratio (%) in homogenates from different tumor tissues [2, 14]: 95.3%; Activation ratio (%) in homogenates from different tumor tissues [3, 14]: 86.4%; Activation ratio (%) in homogenates from different tumor tissues [4, 14]: 97.3%; Activation ratio (%) in homogenates from different tumor tissues [5, 14]: 79.4%; Activation ratio (%) in homogenates from different tumor tissues [6, 14]: 94.8%; Activation ratio (%) in homogenates from different tumor tissues [7, 14]: 86.4%; Activation ratio (%) in homogenates from different tumor tissues [8, 14]: 64.7%; Activation ratio (%) in homogenates from different tumor tissues [9, 14]: 88.4%; Size of tumor (mm^3) Day 18 (D121 lung tumor cells; [15]): 237.60 ± 156.42 mm^3; inhibitory rate on tumor % Day 18 (D121 lung tumor cells; [15]): 84.9%; Effect together with PDL1-antibody in promoting immunization and treatment, in words (D121 lung tumor cells; combination with PDL1-antibody): excellent synergistic effect
COCCOCCOCCOCCOCCOCC(=O)NCCCC[C@H](NC(=O)COCCOCCOCCOCCOCCOC)C(=O)N[C@H](C)C(=O)N[C@H](C)C(=O)N[C@H](CC(N)=O)C(=O)Nc1ccc(COC(=O)OC(C(=O)OC2C[C@@]3(O)[C@@H](OC(=O)c4ccccc4)[C@H]4[C@](C)(C(=O)[C@H](OC(C)=O)C(=C2C)C3(C)C)[C@@H](O)CC2OC[C@]24OC(C)=O)[C@@H](NC(=O)c2ccccc2)c2ccccc2)cc1 (stereo partly shown) [Compound A2] | greatly improved | 94.4% | 19.4% | 87.6% | 92.4% | 101.4% | 92.9% | 93.8% | 94.5% | 76.3% | 88.6% | 375.727 ± 247.3 mm^3 | 77.74% | –
